{"source": "paper PMC3956373", "about": "“Suppression of type 1 pilus assembly in uropathogenic Escherichia coli by chemical inhibition of subunit polymerization” (Journal of Antimicrobial Chemotherapy, 2013)", "biological_target": "T1, FimH (Escherichia coli, UniProt P08191)", "T1 construct": "with FimC (C-terminal His tag); FimG Nte peptide in the assay", "T1 sequence (P08191 22-300)": "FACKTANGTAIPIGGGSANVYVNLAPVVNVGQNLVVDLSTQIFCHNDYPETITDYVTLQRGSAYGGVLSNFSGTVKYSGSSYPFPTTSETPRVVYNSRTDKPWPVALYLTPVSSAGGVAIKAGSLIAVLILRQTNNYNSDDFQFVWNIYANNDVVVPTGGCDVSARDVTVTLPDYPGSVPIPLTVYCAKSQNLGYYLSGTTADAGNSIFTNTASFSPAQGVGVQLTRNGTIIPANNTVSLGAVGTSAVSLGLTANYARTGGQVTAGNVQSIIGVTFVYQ", "T1 sequence (P31697 37-241, further chain)": "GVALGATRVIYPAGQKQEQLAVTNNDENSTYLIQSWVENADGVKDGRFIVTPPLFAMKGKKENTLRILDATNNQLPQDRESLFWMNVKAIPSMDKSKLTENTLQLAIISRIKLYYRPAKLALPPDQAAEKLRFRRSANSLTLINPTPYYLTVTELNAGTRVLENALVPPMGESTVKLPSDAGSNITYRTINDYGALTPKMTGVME", "T1 sequence (P08190 24-167, further chain)": "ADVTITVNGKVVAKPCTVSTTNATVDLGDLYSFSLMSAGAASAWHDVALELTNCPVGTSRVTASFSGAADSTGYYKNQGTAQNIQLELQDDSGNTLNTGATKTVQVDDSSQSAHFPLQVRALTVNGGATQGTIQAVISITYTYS", "assay": "SDS-PAGE donor strand exchange assay with purified FimChis:FimH ([…]) and FimG Nte peptide ([…]), concentration-response", "format": "biochemical", "data": [{"smiles": "O=C(CSc1nnc(-c2ccc(S(=O)(=O)N3CCCC3)cc2)o1)Nc1ccc(Cl)cc1", "note": "[AL1, N-(4-chloro-phenyl)-2-{5-[4-(pyrrolidine-1-sulfonyl)-phenyl]-[1,3,4]oxadiazol-2-ylsulfanyl}-acetamide]", "values": [{"measurement": "IC50", "result": 286, "unit": "µM"}]}]}
